We go through two compounds from patent publication US9278970B2, “Co-crystals of tadalafil and a hydroxy-substituted benzoic acid coformer as phosphodiesterase type 5 inhibitors” (Laboratorios Senosiain S.A. de C.V., priority 2012, dated 2016).

Data set [1] in a line: physicochemical stability of the new solid forms. The source says:
Although there is good understanding of the physicochemistry of the cocrystal components, their elucidation a priori is almost impossible, as the interactions which determine the structure are relatively weak and the number of degrees of freedom for the optimization problem is immeasurable. For these reasons, the new solid forms disclosed herein are not obvious to a person skilled in the art. Further, the cocrystals and solvates of the present invention have shown physicochemical stability, allowing their use in pharmaceutical compositions. The present invention worked, among others, with the following coformers: aliphatic carboxylic acids, aromatic carboxylic acids, aromatic hydroxycarboxylic acids, aliphatic hydroxycarboxylic acids, aromatic heterocyclic amides, amino acid derivatives, polyphenols, alcohols such as xylitol and aromatic aminocarboxylic acids such as 3-aminobenzoic acid. A new solid form (NSF) which was stable with 3-hydroxybenzoic acid was found in the different assays of the present invention. The obtained NSF corresponds to a compound wherein the neutral coformer has a hydroxyl group and a carboxylic acid, and further contains a phenyl group as part of its structure.

The conditions of data set [2]: in therapeutic concentrations; cited from earlier work.
For data set [3] the following is noted: cited from earlier work.
For data set [4] the following is noted: neutral form, D+ isomer (6R,12R); cited from earlier work.

Take `CN1CC(=O)N2[C@H](c3ccc4c(c3)OCO4)c3[nH]c4ccccc4c3C[C@@H]2C1=O.O=C(O)c1cccc(O)c1`: the “physicochemical stability of the solid form” value in data set [1] is “stable”.

With `CN1CC(=O)N2[C@H](c3ccc4c(c3)OCO4)c3[nH]c4ccccc4c3C[C@@H]2C1=O` [tadalafil], the “plasmatic tadalafil bonded to proteins” value in data set [2] is 94%. In data set [3] (faeces), the “eliminated in faeces, predominantly as metabolites” value is recorded as “approximately 61 % of the dose”. For the same compound, in data set [3] (urine), the “eliminated in urine, predominantly as metabolites” value was “approximately 36 % of the dose”. In addition, the solubility in water entry in data set [4] is “almost insoluble in water”.
